From ChEMBL document CHEMBL3124754, “Delivery of a lactose derivative of endomorphin 1 to the brain via the olfactory epithelial pathway” (Bioorg Med Chem Lett, 2014) come the findings set out here.

Each structure is given as a SMILES string.

A short description of data set [1]: Drug uptake in Sprague-Dawley rat blood at 2 mg/kg administered via nasal cavity after 10 mins. The format is ADME, organism-based. Also noted: dose 2 mg/kg. Conditions: inhaled or intranasal, read-out: Drug uptake.
Data set [2] relates to Brain. Kind of data set: Drug uptake in rat brain homogenate at 18.2 uM after 30 mins by LC-MS/MS analysis. The format is ADME, tissue-based. Conditions: in vivo, 0.5 h.
Data set [3] in a line: Drug uptake in Sprague-Dawley rat olfactory bulb at 2 mg/kg administered via nasal cavity after 10 mins. The format is ADME, organism-based. The settings on record: inhaled or intranasal, read-out: Drug uptake. Also on record: dose 2 mg/kg.
Data set [4] in a line: Drug uptake in Sprague-Dawley rat brain at 2 mg/kg administered via nasal cavity after 10 mins. In kind it is ADME, organism-based. Also noted: dose 2 mg/kg. The settings on record: inhaled or intranasal, read-out: Drug uptake.
A short description of data set [5]: Half life in human plasma by RP-HPLC analysis. The format is ADME, cell-free.
Data set [6] relates to Brain. Kind of data set: Drug uptake in rat brain homogenate at 6.5 uM after 30 mins by LC-MS/MS analysis. The format is ADME, tissue-based. The settings on record: in vivo, 0.5 h.
For data set [7], the system named is Plasma. Put plainly: Drug degradation in human plasma assessed as N-lactose endomorphin1 formation after 2 mins by RP-HPLC analysis. The format is ADME, cell-free.

Regarding `NC(=O)[C@H](Cc1ccccc1)NC(=O)[C@H](Cc1c[nH]c2ccccc12)NC(=O)[C@@H]1CCCN1C(=O)[C@H](Cc1ccc(O)cc1)NC(=O)CCC(=O)N[C@@H]1O[C@H](CO)[C@@H](O[C@@H]2O[C@H](CO)[C@H](O)[C@H](O)[C@H]2O)[C@H](O)[C@H]1O`, the concentration at 10 min in data set [1] was determined as 1.6 nM; in data set [3] it was 514 nM; in data set [4] it was 4 nM. The Drug uptake is 18.12 µM in data set [2] and 3.4 µM in data set [6]. The compound further displayed a half-life in data set [5] of 12.9 min.

With `CC(=O)OC[C@H]1O[C@@H](O[C@H]2[C@H](OC(C)=O)[C@@H](OC(C)=O)[C@H](NC(=O)CCC(=O)N[C@@H](Cc3ccc(O)cc3)C(=O)N3CCC[C@H]3C(=O)N[C@@H](Cc3c[nH]c4ccccc34)C(=O)N[C@@H](Cc3ccccc3)C(N)=O)O[C@@H]2COC(C)=O)[C@H](OC(C)=O)[C@@H](OC(C)=O)[C@H]1OC(C)=O`, the Stability result in data set [7] was “Unstable”.

As for `NC(=O)[C@H](Cc1ccccc1)NC(=O)[C@H](Cc1c[nH]c2ccccc12)NC(=O)[C@@H]1CCCN1C(=O)[C@@H](N)Cc1ccc(O)cc1` [ENDOMORPHIN-1], the half-life in data set [5] amounted to 5.9 min.
